Reference: DBAASP
In brackets after ≈: the same amount, converted by molar mass. Several values for one entry are separate records, joined by “and”; a condition that tells them apart may be missing. Equal entries are not always repeated.

What was measured:
Experiment in all cases: ≥ marks a high value that may be exact or a test limit, other limits are often not marked, values filed in µg/mL are converted to µM
Saccharomyces cerevisiae = tested on: Saccharomyces cerevisiae
[1] = tested on: Bacillus subtilis KCTC 1998
Proteus vulgaris = tested on: Proteus vulgaris
[2] = tested on: Escherichia coli ATCC 25922
[3] = tested on: Aspergillus flavus KCTC 9471
Escherichia coli = tested on: Escherichia coli
Staphylococcus aureus = tested on: Staphylococcus aureus
Pseudomonas aeruginosa = tested on: Pseudomonas aeruginosa
[4] = tested on: Staphylococcus aureus ATCC 25923
Salmonella typhimurium = tested on: Salmonella typhimurium
Botrytis cinerea = tested on: Botrytis cinerea
[5] = tested on: Escherichia coli O157:H7 ATCC 43895
Bacillus subtilis = tested on: Bacillus subtilis
[6] = tested on: Staphylococcus epidermidis
[7] = tested on: Candida albicans KCTC 7270
[8] = tested on: Pseudomonas aeruginosa ATCC 15692
[9] = tested on: Aspergillus fumigatus KCTC 6145
Fusarium verticillioides = tested on: Fusarium verticillioides
[10] = tested on: Listeria monocytogenes KCTC 3710
Trichosporon beigelii = tested on: Trichosporon beigelii
Fusarium solani = tested on: Fusarium solani
[11] = tested on: Candida albicans ATCC 90028
[12] = tested on: Pseudomonas syringae pv. tabaci
[13] = tested on: Bacillus cereus ATCC 14579
Trichoderma asperellum = tested on: Trichoderma asperellum
Ramulariopsis gossypii = tested on: Ramulariopsis gossypii
[14] = tested on: Pectobacterium carotovorum
[15] = tested on: Cryptococcus neoformans ATCC 28957
[16] = tested on: Fusarium oxysporum f.sp. vasinfectum
[17] = tested on: Xanthomonas campestris pv. citri
[18] = tested on: Bacillus subtilis ATCC 23857
[19] = tested on: Pseudomonas aeruginosa ATCC 27853
Fusarium oxysporum = tested on: Fusarium oxysporum
Rhizoctonia solani = tested on: Rhizoctonia solani
Candida albicans = tested on: Candida albicans
Streptococcus agalactiae = tested on: Streptococcus agalactiae
[20] = tested on: Acinetobacter calcoaceticus
[21] = tested on: Escherichia coli ATCC 11775
[22] = tested on: Escherichia coli ATCC 35218
[23] = tested on: Salmonella enterica subsp. enterica serovar Typhimurium ATCC 14028
[24] = tested on: Salmonella enterica subsp. enterica serovar Typhi Vi+

Row | SMILES | MIC [2] | MIC (Staphylococcus aureus) | MIC (Pseudomonas aeruginosa) | MIC [4] | MIC (Fusarium solani) | MIC [11] | MIC [12] | MIC [13] | MIC (Trichoderma asperellum) | MIC (Ramulariopsis gossypii) | MIC [14] | MIC [15] | MIC [16] | MIC [17] | MIC [18] | MIC [19] | MIC (Fusarium oxysporum) | MIC [21] | MIC [22] | MIC [23] | also measured
1 | CC[C@H](C)[C@H](NC(=O)[C@H](CCCCN)NC(=O)[C@H](CO)NC(=O)[C@H](Cc1ccccc1)NC(=O)[C@H](CC(C)C)NC(=O)[C@H](CCCCN)NC(=O)[C@H](CCC(=O)O)NC(=O)[C@H](CC(C)C)NC(=O)[C@H](CCCN=C(N)N)NC(=O)[C@H](CCCCN)NC(=O)[C@H](Cc1ccccc1)NC(=O)[C@@H](NC(=O)[C@H](CCCCN)NC(=O)[C@H](CCCCN)NC(=O)[C@H](C)N)C(C)C)C(=O)N[C@@H](Cc1c[nH]c2ccccc12)C(=O)N[C@@H](CC(N)=O)C(=O)N[C@@H](Cc1c[nH]c2ccccc12)C(=O)N[C@@H](CCCCN)C(N)=O [AKKVFKRLEKLFSKIWNWK] | 2 µM (≈ 4.9 µg/mL) | 1.56 µM and 3.13 µM | 3.13 µM (≈ 7.67 µg/mL) | 2 µM (≈ 4.9 µg/mL) |  |  |  |  |  |  |  |  |  |  |  |  |  |  |  |  | MIC (Saccharomyces cerevisiae): 25 µM (≈ 61.2 µg/mL); MIC [1]: 2 µM (≈ 4.9 µg/mL); MIC (Proteus vulgaris): 3.13 µM (≈ 7.67 µg/mL); MIC [3]: 25 µM (≈ 61.2 µg/mL); MIC (Escherichia coli): 1.56 µM (≈ 3.82 µg/mL); MIC (Salmonella typhimurium): 0.39 µM (≈ 0.955 µg/mL); MIC (Botrytis cinerea): 3.13 µM (≈ 7.67 µg/mL); MIC [5]: 3.13 µM (≈ 7.67 µg/mL); MIC (Bacillus subtilis): 1.56 µM (≈ 3.82 µg/mL); MIC [6]: 3.13 µM (≈ 7.67 µg/mL); MIC [7]: 12.5 µM (≈ 30.6 µg/mL); MIC [8]: 2 µM (≈ 4.9 µg/mL); MIC [9]: 25 µM (≈ 61.2 µg/mL); MIC (Fusarium verticillioides): 12.5 µM (≈ 30.6 µg/mL); MIC [10]: 0.39 µM (≈ 0.955 µg/mL); MIC (Trichosporon beigelii): 1.56 µM (≈ 3.82 µg/mL)
2 | CSCC[C@H](NC(=O)[C@H](CCCCN)NC(=O)[C@H](Cc1ccc(O)cc1)NC(=O)[C@H](C)NC(=O)[C@H](CCC(=O)O)NC(=O)[C@H](CC(C)C)NC(=O)[C@H](CC(C)C)NC(=O)[C@H](CCCN=C(N)N)NC(=O)[C@H](CC(N)=O)NC(=O)[C@H](C)N)C(=O)N[C@@H](CC(C)C)C(=O)N[C@@H](CC(C)C)C(=O)N[C@@H](CCCCN)C(=O)N[C@@H](Cc1ccccc1)C(=O)N[C@@H](CC(C)C)C(=O)NCC(=O)N[C@@H](CC(N)=O)C(=O)N[C@@H](CC(C)C)C(=O)N[C@@H](CCCN=C(N)N)C(N)=O [ANRLLEAYKMLLKFLGNLR] | 4 µM (≈ 9.05 µg/mL) |  |  | 1 µM (≈ 2.26 µg/mL) | 2 µM (≈ 4.53 µg/mL) | 4 µM (≈ 9.05 µg/mL) | 2 µM (≈ 4.53 µg/mL) | 4 µM (≈ 9.05 µg/mL) | 4 µM (≈ 9.05 µg/mL) | 2 µM (≈ 4.53 µg/mL) | 1 µM (≈ 2.26 µg/mL) | 2.67 µM (≈ 6.04 µg/mL) | 1.67 µM (≈ 3.78 µg/mL) | 4 µM (≈ 9.05 µg/mL) | 1 µM (≈ 2.26 µg/mL) | 32 µM (≈ 72.4 µg/mL) | 4 µM (≈ 9.05 µg/mL) |  |  |  | MIC (Rhizoctonia solani): 4 µM (≈ 9.05 µg/mL)
3 | CC[C@H](C)[C@H](NC(=O)[C@H](C)NC(=O)[C@H](Cc1cnc[nH]1)NC(=O)[C@@H]1CCCN1C(=O)[C@@H](NC(=O)[C@H](CC(C)C)NC(=O)[C@H](CO)NC(=O)[C@H](CC(C)C)NC(=O)[C@@H](N)Cc1ccccc1)[C@@H](C)CC)C(=O)N[C@@H](CC(N)=O)C(=O)N[C@@H](C)C(=O)N[C@H](C(=O)N[C@@H](CO)C(=O)N[C@@H](C)C(=O)N[C@@H](CC(C)C)C(=O)N[C@@H](C)C(=O)N[C@@H](CC(N)=O)C(=O)N[C@@H](Cc1cnc[nH]1)C(=O)NCC(N)=O)C(C)C [FLSLIPHAINAVSALANHG] |  | 8.2 µM (≈ 15.9 µg/mL) | 32.8 µM (≈ 63.8 µg/mL) |  |  |  |  |  |  |  |  |  |  |  |  |  |  |  |  |  | MIC (Candida albicans): 8.2 µM (≈ 15.9 µg/mL); MIC (Streptococcus agalactiae): 4.1 µM (≈ 7.97 µg/mL); MIC [20]: 4.1 µM (≈ 7.97 µg/mL)
4 | CC[C@H](C)[C@H](NC(=O)[C@@H]1CCCN1C(=O)[C@H](CCCN=C(N)N)NC(=O)[C@@H]1CCCN1C(=O)[C@H](Cc1cnc[nH]1)NC(=O)[C@H](CO)NC(=O)[C@@H](NC(=O)[C@@H]1CCCN1C(=O)[C@H](CCCN=C(N)N)NC(=O)[C@@H]1CCCN1C(=O)[C@H](CO)NC(=O)[C@H](Cc1ccc(O)cc1)NC(=O)[C@@H]1CCCN1C(=O)[C@H](CCCCN)NC(=O)[C@@H]1CCCN1C(=O)[C@H](CCCCN)NC(=O)CN)[C@@H](C)O)C(=O)N[C@@H](CCCN=C(N)N)C(=O)N[C@H](C(=O)O)C(C)C [GKPKPYSPRPTSHPRPIRV] | 1.5 µM (≈ 3.26 µg/mL) |  |  |  |  |  |  |  |  |  |  |  |  |  |  |  |  | 1.1 µM (≈ 2.39 µg/mL) | 0.6 µM (≈ 1.3 µg/mL) | 4 µM (≈ 8.68 µg/mL) | MIC [24]: 4 µM (≈ 8.68 µg/mL)
5 | CC[C@H](C)[C@H](NC(=O)[C@@H]1CCCN1C(=O)[C@H](CCCCN)NC(=O)[C@@H]1CCCN1C(=O)[C@H](Cc1cnc[nH]1)NC(=O)[C@H](CO)NC(=O)[C@@H](NC(=O)[C@@H]1CCCN1C(=O)[C@H](CCCN=C(N)N)NC(=O)[C@@H]1CCCN1C(=O)[C@H](CO)NC(=O)[C@H](Cc1ccc(O)cc1)NC(=O)[C@@H]1CCCN1C(=O)[C@H](CCCN=C(N)N)NC(=O)[C@@H]1CCCN1C(=O)[C@H](CCCCN)NC(=O)CN)[C@@H](C)O)C(=O)N[C@@H](CCCN=C(N)N)C(=O)N[C@H](C(=O)O)C(C)C [GKPRPYSPRPTSHPKPIRV] | 7 µM (≈ 15.2 µg/mL) |  |  |  |  |  |  |  |  |  |  |  |  |  |  |  |  | 6 µM (≈ 13 µg/mL) | 3.5 µM (≈ 7.6 µg/mL) | 25 µM (≈ 54.3 µg/mL) | MIC [24]: 30 µM (≈ 65.1 µg/mL)
6 | CSCC[C@H](NC(=O)[C@H](Cc1ccccc1)NC(=O)CNC(=O)[C@H](Cc1cnc[nH]1)NC(=O)[C@H](CC(C)C)NC(=O)[C@H](CO)NC(=O)CN)C(=O)N[C@@H](Cc1ccc(O)cc1)C(=O)N[C@@H](CCCCN)C(=O)N[C@@H](Cc1ccc(O)cc1)C(=O)N[C@@H](CC(C)C)C(=O)N[C@@H](CCCCN)C(=O)N[C@@H](CC(N)=O)C(=O)N[C@@H](CCSC)C(=O)N[C@H](C(=O)N[C@@H](CC(C)C)C(=O)N[C@H](C(=O)N[C@@H](CC(C)C)C(=O)N[C@@H](Cc1ccccc1)C(N)=O)[C@@H](C)O)C(C)C [GSLHGFMYKYLKNMVLTLF] | 64 µM (≈ 145 µg/mL) |  |  | 16 µM (≈ 36.2 µg/mL) | ≥ 32 µM | 16 µM (≈ 36.2 µg/mL) | 16 µM (≈ 36.2 µg/mL) | ≥ 128 µM | 8 µM (≈ 18.1 µg/mL) | 4 µM (≈ 9.05 µg/mL) | ≥ 256 µM | 16 µM (≈ 36.2 µg/mL) | 8 µM (≈ 18.1 µg/mL) | ≥ 128 µM | 16 µM (≈ 36.2 µg/mL) | 32 µM (≈ 72.4 µg/mL) | 16 µM (≈ 36.2 µg/mL) |  |  |  | 
